For one data set, the system named is rat aorta. The experiment in a line: Vasodilating effect in a rat aorta (relaxation of KCl-induced contraction). To be noted: isolated rat thoracic aorta, 40 mM KCl; read-out: IC50 (concentration for inhibiting 50% of the tension induced by KCl). More on the design: species or system rat (male Wistar rat). As for the experimental part: Physiological effect of the compound of the present invention was tested by the method with use of an isolated rat aorta.
Thoracic aorta was isolated from a male Wistar rat (body weight, 250-350 g) exsanguinated to death for obtaining ring preparations having a width of 3 mm. The preparations were suspended into an organ bath filled with the Krebs-Ringer solution through which a mixed gas of 95% O2 and 5% CO2 had been aerated at 37° C. A resting tension of 1 g was applied to the preparation. After the tension in the preparation was stabilized, the solution in the organ bath was exchanged with an equimolar solution containing 40 mM KC1 to increase the tension of the preparation. When the tension induced by KCl become stable, the test compound was cumulatively added to the organ bath to relax the preparation. Relaxation response was expressed as percentage inhibition of KCl-induced contraction, and the IC50 value (concentration for inhibiting 50% of the tension induced by KCl) was calculated from the average concentration-response curve by the Probit method.

Data set [1] relates to spontaneously hypertensive rats (SHR), systolic blood pressure. As to the kind of experiment: Antihypertensive effects on conscious SHR (oral), Compound Nos. 18 and 19. The format is in vivo, rat (male spontaneously hypertensive rats. The procedure:
Antihypertensive effects of- 5-amino-N-cyano-N'-(2-nitroxyethyl)-3-pyridinecarboximidamide (N-cyano-N'-(2-nitroxyethyl)-5-(3-aminopyridine)carboximidamide; Compound No. 18) and N-cyano-5-ethylamino-N'-(2-nitroxyethyl)-3-pyridinecarboximidamide (N-cyano-N'-(2-nitroxyethyl)-5-[3-(N-ethylaminopyridine)]carboximidamide; Compound No. 19) were assessed by comparison with those of the methanesulfonate salt of N-cyano-N'-(2-nitroxyethyl)-3-pyridinecarboximidamide (compound described in Japanese Patent Laid-Open Publication No. 163061/1991) as a reference compound which is thought to be a well-known compound most similar to the compound of the present invention.
Systolic blood pressure (SBP) was measured with the tail cuff method.
Each of the compound Nos. 18 and 19 was dissolved in an equivalent mixture of polyethylene glycol 200 and physiological saline, and the reference compound was dissolved in physiological saline. The compounds were administered orally with the aid of an oral probe. SBP was measured before administration and 1, 2, 4, 6, 8, 12 and 24 hours after administration of the compound. The results were expressed as the percentage change in SBP observed before administration.

For data set [2], the system named is coronary blood flow (circumflex branch of the left coronary artery), beagles. The experiment in a line: Coronary dilating effect on beagles (coronary blood flow, anesthetized dog). It counts as in vivo. To be noted: i.v., 10 Mg/Kg. As for the experimental part: Coronary dilating effects of 5-amino-N-cyano-N'-(2-nitroxyethyl)-3-pyridinecarboximidamide (Compound No. 18) of the present invention was assessed by comparison with those of N-cyano-N'-(2-nitroxyethyl)-3-pyridinecarboximidamide methanesulfonic acid (compound described in Japanese Patent Laid-Open Publication No. 163061/1991) which is thought to be a well-known compound most similar to the compound of the present invention.
A dog (body weight, 8.3 kg) was anesthetized with 30 mg/kg of pentobarbital sodium intravenously. Respiration was maintained with room air through a cuffed endotracheal tube. The drug was administered through the femoral vein, and the coronary blood flow was measured by a probe attached to the circumflex branch of the left coronary artery.

A short description of data set [3]: Acute toxicity, oral, Compound No. 18. To be noted: rat, in vivo, male SD rats (5 weeks old). The procedure: Acute toxicity of 5-amino-N-cyano-N'-(2-nitroxyethyl)-3-pyridinecarboximidamide (Compound No. 18) of the present invention on oral administration was examined with male SD rats (5 weeks old). As a result, LD50 was about 600 mg/kg.

On to `N#CNC(=NCCO[N+](=O)[O-])c1cncc(N)c1` [Compound No. 18, 5-amino-N-cyano-N'-(2-nitroxyethyl)-3-pyridinecarboximidamide], for which the IC50 in the data set on rat aorta was determined as 22 µM. The “decrease in blood pressure / antihypertensive effect” value in data set [1] (3.0 mg/kg oral) is reported as “decrease in blood pressure was observed”. The “duration of the antihypertensive effect” value in data set [1] (3.0 mg/kg oral) was not below 12 h. Moreover, the “percent change in SBP observed before administration of the compound” value in data set [1] (3.0 mg/kg oral, 1 hour after administration) is on record as -56.9%; in data set [1] (3.0 mg/kg oral, 2 hour after administration), -49.2%; in data set [1] (3.0 mg/kg oral, 4 hour after administration) it was -42.6%; in data set [1] (3.0 mg/kg oral, 6 hour after administration), -17.9%; in data set [1] (3.0 mg/kg oral, 8 hour after administration), -20.5%; in data set [1] (3.0 mg/kg oral, 12 hour after administration), -22.2%. Further, the “percent change in SBP observed before administration of the compound” value in data set [1] (3.0 mg/kg oral, 24 hour after administration) was -3.7%. The “antihypertensive activity or coronary vasodilating effect determined with the passage of time” value in data set [1] (summary statement) was “remarkably potent and sustainable”. In addition, the “increase of coronary blood flow” value in data set [2] is reported as “increase of coronary blood flow was observed”. Further, the “time for which the increase of coronary blood flow was retained” value in data set [2] was not below 15 min. The “percent change of coronary blood flow as compared with the blood flow before administration” value in data set [2] (1 min after dosage) was 200.0%; in data set [2] (3 min after dosage), 123.8%; in data set [2] (5 min after dosage), 71.4%; in data set [2] (10 min after dosage), 19.0%; in data set [2] (15 min after dosage), 19.0%; in data set [2] (20 min after dosage) it was 0.0%. Also, in data set [3], the LD50 is approximately 600 mg/kg.
